Source: US20100099561A1, “HETEROBICYCLIC ALKYLTHIO-BRIDGED ISOXAZOLINES” (E.I. DU PONT DE NEMOURS AND COMPANY, priority 2008, published 2010)

Tests used:
Format in all cases: in vivo
[1] = test system: barnyardgrass (Echinochloa crus-galli); assay: Test A preemergence, barnyardgrass; settings: 0 to 100 scale (0 no effect, 100 complete control)
In short: (§1)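 Each compound, in a non-phytotoxic solvent mixture with surfactant, is applied to soil at planting and, concurrently, to young one- to two-leaf plants. After approximately ten greenhouse days, visual response is rated 0 (no effect) to 100 (complete control) against untreated controls.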

[2] = test system: large crabgrass (Digitaria sanguinalis); assay: Test A preemergence, large crabgrass; settings: 0 to 100 scale (0 no effect, 100 complete control)
In short: as §1

[3] = test system: giant foxtail (Setaria faberi); assay: Test A preemergence, giant foxtail; settings: 0 to 100 scale (0 no effect, 100 complete control)
In short: as §1

[4] = test system: morningglory (Ipomoea spp.); assay: Test A preemergence, morningglory; settings: 0 to 100 scale (0 no effect, 100 complete control)
In short: as §1

[5] = test system: pigweed (Amaranthus retroflexus); assay: Test A preemergence, pigweed; settings: 0 to 100 scale (0 no effect, 100 complete control)
In short: as §1

[6] = test system: velvetleaf (Abutilon theophrasti); assay: Test A preemergence, velvetleaf; settings: 0 to 100 scale (0 no effect, 100 complete control)
In short: as §1

[7] = test system: wheat (Triticum aestivum); assay: Test A preemergence, wheat; settings: 0 to 100 scale (0 no effect, 100 complete control)
In short: as §1

[8] = test system: corn (Zea mays); assay: Test A preemergence, corn; settings: 0 to 100 scale (0 no effect, 100 complete control)
In short: as §1

[9] = test system: barnyardgrass (Echinochloa crus-galli); assay: Test A postemergence, barnyardgrass; settings: 0 to 100 scale (0 no effect, 100 complete control)
In short: as §1

[10] = test system: large crabgrass (Digitaria sanguinalis); assay: Test A postemergence, large crabgrass; settings: 0 to 100 scale (0 no effect, 100 complete control)
In short: as §1

[11] = test system: giant foxtail (Setaria faberi); assay: Test A postemergence, giant foxtail; settings: 0 to 100 scale (0 no effect, 100 complete control)
In short: as §1

[12] = test system: morningglory (Ipomoea spp.); assay: Test A postemergence, morningglory; settings: 0 to 100 scale (0 no effect, 100 complete control)
In short: as §1

[13] = test system: pigweed (Amaranthus retroflexus); assay: Test A postemergence, pigweed; settings: 0 to 100 scale (0 no effect, 100 complete control)
In short: as §1

[14] = test system: velvetleaf (Abutilon theophrasti); assay: Test A postemergence, velvetleaf; settings: 0 to 100 scale (0 no effect, 100 complete control)
In short: as §1

[15] = test system: wheat (Triticum aestivum); assay: Test A postemergence, wheat; settings: 0 to 100 scale (0 no effect, 100 complete control)
In short: as §1

[16] = test system: corn (Zea mays); assay: Test A postemergence, corn; settings: 0 to 100 scale (0 no effect, 100 complete control)
In short: as §1

[17] = test system: rice (Oryza sativa); assay: Test B flooded paddy test, rice; settings: Flood, scale 0 to 100
In short: (§2)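 Rice, umbrella sedge, ducksalad and barnyardgrass at 2-leaf stage; pots flooded to 3 cm, compounds applied into paddy water, depth held throughout. Greenhouse 13 to 15 days, then visual rating vs untreated controls on 0–100 scale (0 no effect, 100 complete control); dash means no test result.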

[18] = test system: umbrella sedge (Cyperus difformis); assay: Test B flooded paddy test, umbrella sedge; settings: Flood, scale 0 to 100
In short: as §2

[19] = test system: ducksalad (Heteranthera limosa); assay: Test B flooded paddy test, ducksalad; settings: Flood, scale 0 to 100
In short: as §2

[20] = test system: barnyardgrass (Echinochloa crus-galli); assay: Test B flooded paddy test, barnyardgrass; settings: Flood
In short: as §2

[21] = 250 g ai/ha, scale 0 to 100 (0 no effect, 100 complete control)

What does the source list for CC1(C)CC(S(=O)(=O)Cc2c(C(F)(F)F)nc3ccon3c2=O)=NO1 [Compound 42]?
Plant response rating, Barnyardgrass ([1]; 125 g ai/ha): 30; Plant response rating, Barnyardgrass ([1]; 500 g ai/ha): 80; Plant response rating, Crabgrass, Large ([2]; 125 g ai/ha): 50; Plant response rating, Crabgrass, Large ([2]; 500 g ai/ha): 80; Plant response rating, Foxtail, Giant ([3]; 125 g ai/ha): 60; Plant response rating, Foxtail, Giant ([3]; 500 g ai/ha): 90; Plant response rating, Morningglory ([4]; 125 g ai/ha): 0; Plant response rating, Morningglory ([4]; 500 g ai/ha): 0; Plant response rating, Pigweed ([5]; 125 g ai/ha): 0; Plant response rating, Pigweed ([5]; 500 g ai/ha): 30; Plant response rating, Velvetleaf ([6]; 125 g ai/ha): 0; Plant response rating, Velvetleaf ([6]; 500 g ai/ha): 0; Plant response rating, Wheat ([7]; 125 g ai/ha): 0; Plant response rating, Wheat ([7]; 500 g ai/ha): 0; Plant response rating, Corn ([8]; 125 g ai/ha): 0; Plant response rating, Corn ([8]; 500 g ai/ha): 0; Plant response rating, Barnyardgrass ([9]; 125 g ai/ha): 70; Plant response rating, Barnyardgrass ([9]; 500 g ai/ha): 80; Plant response rating, Crabgrass, Large ([10]; 125 g ai/ha): 50; Plant response rating, Crabgrass, Large ([10]; 500 g ai/ha): 70; Plant response rating, Foxtail, Giant ([11]; 125 g ai/ha): 60; Plant response rating, Foxtail, Giant ([11]; 500 g ai/ha): 80; Plant response rating, Morningglory ([12]; 125 g ai/ha): 0; Plant response rating, Morningglory ([12]; 500 g ai/ha): 0; Plant response rating, Pigweed ([13]; 125 g ai/ha): 0; Plant response rating, Pigweed ([13]; 500 g ai/ha): 10; Plant response rating, Velvetleaf ([14]; 125 g ai/ha): 0; Plant response rating, Velvetleaf ([14]; 500 g ai/ha): 0; Plant response rating, Wheat ([15]; 125 g ai/ha): 0; Plant response rating, Wheat ([15]; 500 g ai/ha): 20; Plant response rating, Corn ([16]; 125 g ai/ha): 0; Plant response rating, Corn ([16]; 500 g ai/ha): 0; Plant response rating, Rice ([17]; 31 g ai/ha): 0; Plant response rating, Rice ([17]; 62 g ai/ha): 0; Plant response rating, Rice ([17]; 125 g ai/ha): 0; Plant response rating, Rice ([17]; 250 g ai/ha): 0; Plant response rating, Sedge, Umbrella ([18]; 31 g ai/ha): 0; Plant response rating, Sedge, Umbrella ([18]; 62 g ai/ha): 0; Plant response rating, Sedge, Umbrella ([18]; 125 g ai/ha): 0; Plant response rating, Sedge, Umbrella ([18]; 250 g ai/ha): 0; Plant response rating, Ducksalad ([19]; 31 g ai/ha): 0; Plant response rating, Ducksalad ([19]; 62 g ai/ha): 0; Plant response rating, Ducksalad ([19]; 125 g ai/ha): 0; Plant response rating, Ducksalad ([19]; 250 g ai/ha): 0; Plant response rating, Barnyardgrass ([20]; 31 g ai/ha, scale 0 to 100): 0; Plant response rating, Barnyardgrass ([20]; 62 g ai/ha, scale 0 to 100): 0; Plant response rating, Barnyardgrass ([20]; 125 g ai/ha, scale 0 to 100): 0; Plant response rating, Barnyardgrass [20, 21]: 0

How did the “Plant response rating, Barnyardgrass” value ([1]; 125 g ai/ha) turn out when Cn1c(=O)c(C[S+]([O-])C2=NOC(C)(C)C2)nc2ccccc21 (stereo not shown) [Compound 24] was run?
Its value is 0.

And the “Plant response rating, Barnyardgrass” value ([1]; 500 g ai/ha)?
The value was 0.

And the “Plant response rating, Crabgrass, Large” value ([2]; 125 g ai/ha)?
The value was 0.

What about the “Plant response rating, Crabgrass, Large” value ([2]; 500 g ai/ha) of the same molecule?
The value was 0.

And the “Plant response rating, Foxtail, Giant” value ([3]; 125 g ai/ha)?
Its value is 0.

And the “Plant response rating, Foxtail, Giant” value ([3]; 500 g ai/ha)?
The value was 0.

What about the “Plant response rating, Morningglory” value ([4]; 125 g ai/ha) of the same molecule?
The value was 0.

What about the “Plant response rating, Morningglory” value ([4]; 500 g ai/ha) of the same molecule?
The value was 0.

What about the “Plant response rating, Pigweed” value ([5]; 125 g ai/ha) of the same molecule?
Its value is 0.

And the “Plant response rating, Pigweed” value ([5]; 500 g ai/ha)?
The value was 0.

What about the “Plant response rating, Velvetleaf” value ([6]; 125 g ai/ha) of the same molecule?
Its value is 0.

And the “Plant response rating, Velvetleaf” value ([6]; 500 g ai/ha)?
Its value is 0.

And the “Plant response rating, Wheat” value ([7]; 125 g ai/ha)?
The value was 0.

And the “Plant response rating, Wheat” value ([7]; 500 g ai/ha)?
Its value is 0.

What about the “Plant response rating, Corn” value ([8]; 125 g ai/ha) of the same molecule?
Its value is 0.

What about the “Plant response rating, Corn” value ([8]; 500 g ai/ha) of the same molecule?
Its value is 0.

What about the “Plant response rating, Barnyardgrass” value ([9]; 125 g ai/ha) of the same molecule?
The value was 0.

What about the “Plant response rating, Barnyardgrass” value ([9]; 500 g ai/ha) of the same molecule?
Its value is 0.

And the “Plant response rating, Crabgrass, Large” value ([10]; 125 g ai/ha)?
The value was 0.

And the “Plant response rating, Crabgrass, Large” value ([10]; 500 g ai/ha)?
The value was 0.

What about the “Plant response rating, Foxtail, Giant” value ([11]; 125 g ai/ha) of the same molecule?
Its value is 0.

What about the “Plant response rating, Foxtail, Giant” value ([11]; 500 g ai/ha) of the same molecule?
The value was 0.

And the “Plant response rating, Morningglory” value ([12]; 125 g ai/ha)?
The value was 0.

And the “Plant response rating, Morningglory” value ([12]; 500 g ai/ha)?
The value was 0.

And the “Plant response rating, Pigweed” value ([13]; 125 g ai/ha)?
Its value is 0.

And the “Plant response rating, Pigweed” value ([13]; 500 g ai/ha)?
The value was 0.

And the “Plant response rating, Velvetleaf” value ([14]; 125 g ai/ha)?
The value was 0.

What about the “Plant response rating, Velvetleaf” value ([14]; 500 g ai/ha) of the same molecule?
Its value is 0.

And the “Plant response rating, Wheat” value ([15]; 125 g ai/ha)?
Its value is 0.

What about the “Plant response rating, Wheat” value ([15]; 500 g ai/ha) of the same molecule?
Its value is 0.

What about the “Plant response rating, Corn” value ([16]; 125 g ai/ha) of the same molecule?
Its value is 0.

What about the “Plant response rating, Corn” value ([16]; 500 g ai/ha) of the same molecule?
Its value is 0.

What about the “Plant response rating, Rice” value ([17]; 62 g ai/ha) of the same molecule?
The value was 30.

And the “Plant response rating, Rice” value ([17]; 250 g ai/ha)?
The value was 30.

What about the “Plant response rating, Sedge, Umbrella” value ([18]; 62 g ai/ha) of the same molecule?
The value was 20.

What about the “Plant response rating, Sedge, Umbrella” value ([18]; 250 g ai/ha) of the same molecule?
Its value is 30.

What about the “Plant response rating, Ducksalad” value ([19]; 62 g ai/ha) of the same molecule?
Its value is 0.

What about the “Plant response rating, Ducksalad” value ([19]; 250 g ai/ha) of the same molecule?
The value was 30.

What about the “Plant response rating, Barnyardgrass” value ([20]; 62 g ai/ha, scale 0 to 100) of the same molecule?
The value was 0.

What about the “Plant response rating, Barnyardgrass” value [20, 21] of the same molecule?
The value was 0.
